Here are results for three molecules from US20210030005A1, “BENZOXABOROLE COMPOSITIONS HAVING A GROWTH ENHANCING EFFECT” (BORAGEN, INC., priority 2018, published 2021).

The subject of assay [1] is Southern Rust of Maize (Puccinia polysora). As to the kind of experiment: Field trial, Southern Rust of Maize severity on maize. In kind it is in vivo. As for the experimental part:
(§1) In this example, diseased maize having Southern Rust of Maize (Puccinia polysora) was treated with BAG8, Azoxystrobin, and Boscalid. Testing was performed to assess the fungicidal effect of the compounds on Southern Rust of Maize (Puccinia polysora) and to assess the growth enhancing effect of the compounds on the diseased maize.
(§2) Maize was planted into 6×30 ft plots and replicated four times in a randomized complete block design. Three treatments and an untreated control were tested for efficacy against Southern Rust of Maize (Puccinia polysora) and assessed for yield at the conclusion of the growing season. Foliar applications of the three treatments, BAG8 at 0.25 pounds of active ingredient per acre, azoxystrobin at 0.25 pounds of active ingredient per acre, and boscalid at 0.24 pounds of active ingredient per acre, were applied to the plots at growth stage V8. Best practices were used consistently across the test plots with regard to field conditions such as fertilization, insect control, weed control, and irrigation. Disease assessments were taken in each plot 28 days after the foliar fungicide application. At maturity, each plot was harvested using standard harvesting equipment. After shelling, the kernels were weighed at 11% moisture and yield calculations extrapolated to bushels per acre.
(§3) Analysis of variance (ANOVA) was used to examine disease severity data and means were separated using Fisher's least significant difference (LSD) method at α=0.05. […]

Assay [2] has as its system Asian Soybean Rust (Phakopsora pachyrhizi). As to the kind of experiment: Field trial, Asian Soybean Rust severity on soybean. In kind it is in vivo. As for the experimental part: (§4) In this example, diseased soybeans having Asian Soybean Rust (Phakopsora pachyrhizi) were treated with BAG8 and Azoxystrobin. Testing was performed to assess the fungicidal effect of the compounds on Asian Soybean Rust and to assess the growth enhancing effects of the compounds on the diseased soybeans.
(§5) Soybeans were planted into 6×30 ft plots and replicated four times in a randomized complete block design. Two treatments and an untreated control were tested for efficacy against Asian Soybean Rust (Phakopsora pachyrhizi) and assessed for yield at the conclusion of the growing season. Foliar applications of the two treatments, BAG8 at 0.25 pounds of active ingredient per acre and azoxystrobin at 0.25 pounds of active ingredient per acre, were applied to the plots at two separate times: growth stage R1 (flowering) and growth stage R3 (bean pod formation). Best practices were used consistently across the test plots with regard to field conditions such as fertilization, insect control, weed control, and irrigation. Disease assessments were taken in each plot 28 days after the final foliar fungicide application. At maturity, each plot was harvested using standard harvesting equipment. After shelling, the beans were weighed at 13% moisture and yield calculations extrapolated to bushels per acre.
as §3

For assay [3], the system named is diseased soybeans. The assay can be described thus: Field trial, yield of diseased soybeans. In kind it is in vivo, soybean. The method, then: as §4, §5, §3
The test system of assay [4] is diseased maize. As to the kind of experiment: Field trial, yield of diseased maize. In kind it is in vivo. The following applies: for Yield: 11% moisture. As for the experimental part: as §1, §2, §3
Assay [5] concerns Tomato. The following applies: Davis et al. 2003, cited from earlier work.

Regarding `CO/C=C(/C(=O)OC)c1ccccc1Oc1cc(Oc2ccccc2C#N)ncn1` [Azoxystrobin, reference compound], the “reduced disease relative to the untreated control” value in assay [1] (0.25 lb ai/A foliar) came to 100%. The “Disease Severity (% Leaf Coverage)” value in assay [1] (0.25 lb ai/A foliar at V8, 28 days after application) stood at 0.0 c % Leaf Coverage; in assay [2] (0.25 lb ai/A foliar at R1 and R3, 28 days after final application), 30.6 d % Leaf Coverage. Moreover, in assay [2] (0.25 lb ai/A foliar), the “reduced disease in comparison to untreated control” value is recorded as 66%. The molecule also showed an increased soybean yield in assay [3] (0.25 lb ai/A foliar) of 305%. For the same molecule, the Yield in assay [3] (0.25 lb ai/A foliar at R1 and R3, harvest at maturity, 13% moisture) came out at 59.2 a bu/A; in assay [4] (0.25 lb ai/A foliar at V8, harvest at maturity), 151.1 a bu/A. In assay [4] (0.25 lb ai/A foliar), the “increased yield relative to untreated control” value is 205%.
Regarding `O=C(Nc1ccccc1-c1ccc(Cl)cc1)c1cccnc1Cl` [Boscalid], in assay [1] (0.24 lb ai/A foliar at V8, 28 days after application), the “Disease Severity (% Leaf Coverage)” value is recorded as 25.1 b % Leaf Coverage. The same molecule gave a Yield in assay [4] (0.24 lb ai/A foliar at V8, harvest at maturity) of 91.6 c bu/A.
On to `OB(O)O` [boric acid], for which the “yield and shelf-life of harvested tomatoes” value in assay [5] is “higher yield and longer shelf-life for harvested tomatoes”. In assay [5] (hydroponic fertilizer), the “growth of the plant” value was “increased growth of the plant, plant parts, and plant propagation materials”.
